# In ChEMBL document CHEMBL1153583, “Organocatalytic synthesis and sterol 14alpha-demethylase binding interactions of enantioriched 3-(1H-1,2,4-triazol-1-yl)butyl benzoates” (Bioorg Med Chem Lett, 2009):
# Assay: Binding affinity to Penicillium digitatum CYP51 expressed in Escherichia coli by UV-visible spectrophotometry
row,Structure (SMILES),Kd [nM]
1,Cc1ccc(C(=O)OCC[C@@H](C)n2cncn2)cc1,338
2,C[C@H](CCOC(=O)c1ccccc1)n1cncn1,1620
3,C[C@@H](CCOC(=O)c1cccc(Cl)c1)n1cncn1,472
4,C[C@H](CCOC(=O)c1ccc(Cl)cc1)n1cncn1,682
5,C[C@@H](CCOC(=O)c1ccccc1)n1cncn1,1420
6,C[C@@H](CCOC(=O)c1ccccc1Cl)n1cncn1,560
7,C[C@@H](CCOC(=O)c1ccc(Cl)cc1)n1cncn1,988
8,Cc1ccc(C(=O)OCC[C@H](C)n2cncn2)cc1,10500
9,C[C@H](CCOC(=O)c1cccc(Cl)c1)n1cncn1,2360
10,C[C@@H](CCOC(=O)c1ccc(Cl)cc1Cl)n1cncn1,452
11,C[C@H](CCOC(=O)c1ccccc1Cl)n1cncn1,580
12,CC(CCOC(=O)c1ccccc1)n1cncn1 (racemic),1180
13,CC(CCOC(=O)c1cccc(Cl)c1)n1cncn1 (racemic),743
14,CC(CCOC(=O)c1ccc(Cl)cc1Cl)n1cncn1 (racemic),973
15,CC(CCOC(=O)c1ccccc1Cl)n1cncn1 (racemic),1120
16,CC(CCOC(=O)c1ccc(Cl)cc1)n1cncn1 (racemic),1380
17,Cc1ccc(C(=O)OCCC(C)n2cncn2)cc1 (racemic),1740
18,CC(C)(C)C(O)/C(=C/c1ccc(Cl)cc1Cl)n1cncn1 (centres undefined) [DINICONAZOLE],247
19,CC(C)(C)C(=O)C(Oc1ccc(Cl)cc1)n1cncn1 (centres undefined) [TRIADIMEFON],936
